Values joined by “and” are separate entries in the source; they are usually repeats but may differ in a detail not shown here. Identical values can stand only once. Active and inactive are the calls of the source. No rule for the calls is given here.
Test system: not listed separately
Assay: M. tuberculosis H37Rv growth inhibition, dose response, strain H37Rv (AID 489010)
Conditions: M. tuberculosis H37Rv growth inhibition; at 100 µM (top of the series)

Row | SMILES | growth inhibition
1 | C/C(=N\NC(=O)Cc1cc(=O)[nH][nH]1)c1cccc([N+](=O)[O-])c1 | 2.86% (inactive)
2 | CCOc1ccccc1C1C(C#N)=C(N)Nc2onc(-c3ccccc3)c21 (configuration not stated) | -3.07% (inactive)
3 | N#CC1=C(N)Oc2n[nH]c(-c3cccs3)c2C1c1ccsc1 (configuration not stated) | 2.91% (inactive)
4 | CSCCC1C(C#N)=C(N)Oc2n[nH]c(-c3cccs3)c21 (configuration not stated) | 11.2% (inactive)
5 | Cc1nc2ccccc2c2c1C(=O)N(C)C2=O | -4.82% (inactive)
6 | CC(=O)N1CCC2(CC1)C(C#N)=C(N)Oc1n[nH]c(CSc3ccc(C)cc3)c12 | 1.12% (inactive)
7 | CC(=O)N(C1CC(C)C(C#N)(C#N)C1(C#N)C#N)N(C)C (configuration not stated) | -7.63% (inactive)
8 | O=C(CCCN1C(=O)/C(=C/c2cccs2)SC1=S)Nc1ccc(O)cc1 | 21.9% (inactive)
9 | Cc1ccc(O)c(N=CC2=C(O)c3ccccc3C2=O)c1 | 9.56% (inactive)
10 | Cc1ccc(SCc2[nH]nc3c2C2(CCSCC2)C(C#N)=C(N)O3)cc1 | 6.38% (inactive)
11 | CCCc1c(-c2ccc(O)cc2)nn(-c2ccc(O)cc2)c1-c1ccc(O)cc1 | 6.41% (inactive)
12 | CCCCCCOC(=O)c1ccc(OC(=O)c2cccnc2)cc1 | 26.1% (inactive)
13 | Cc1ccc(SCC2=NNC(=O)C2)cc1 | 5.45% (inactive)
14 | COc1cccc(-c2[nH]nc3c2C(c2ccsc2)C(C#N)=C(N)O3)c1 (configuration not stated) | 5.86% (inactive)
15 | O=C(Cc1cc(=O)[nH][nH]1)N/N=C/c1c(Cl)cccc1Cl | 9.07% (inactive)
16 | N#CC(C#N)C(c1ccsc1)c1c(-c2ccccc2)[nH][nH]c1=O (configuration not stated) | -3.85% (inactive)
17 | N#Cc1ccc(-n2c(-c3ccccc3)nnc2-c2ccccc2)cc1C#N | 6.39% (inactive)

Row | SMILES | growth inhibition
18 | O=C1NC2=C(CCc3ccccc32)C(c2ccccc2)N1 (configuration not stated) | 1.42% (inactive)
19 | CC1(C)N=C(SCC(=O)Nc2ccc(Cl)cc2)C(c2ccc(Cl)cc2)=N1 | 2.13% (inactive)
20 | N#CC1=C(N)Oc2n[nH]c(-c3ccccc3)c2C1c1ccsc1 (configuration not stated) | 7.24% (inactive)
21 | O=C(Cc1cc(=O)[nH][nH]1)N/N=C/c1cccc(Cl)c1Cl | -0.74% (inactive) and -0.13% (inactive)
22 | O=C(CSCc1cc(=O)[nH][nH]1)Nc1ccc(F)cc1 | 0.76% (inactive)
23 | Cc1ccsc1/C=N/NC(=O)Cc1cc(=O)[nH][nH]1 | -3.09% (inactive)
24 | O=C(Cc1cc(=O)[nH][nH]1)N/N=C/C(Cl)=C/c1ccccc1 | 6.66% (inactive)
25 | Cc1nn(C)c(C)c1C1C(C#N)=C(N)Oc2n[nH]c(C)c21 (configuration not stated) | 2.21% (inactive)
26 | CCCc1[nH]nc2c1C(c1ccoc1)C(C#N)=C(N)O2 (configuration not stated) | 1.3% (inactive)
27 | C/C(=N/NC(=O)Cc1cc(=O)[nH][nH]1)c1ccc([N+](=O)[O-])cc1 | -1.21% (inactive)
28 | COC(=O)C(C#N)C(c1cccnc1)c1c(C)[nH][nH]c1=O (configuration not stated) | -0.4% (inactive)
29 | CCOC(=O)C/C(C)=N/NC(=O)COc1ccccc1C | 2.99% (inactive)
30 | COc1ccc(N(C(=O)COc2cccc(C)c2)S(=O)(=O)c2ccc(C)cc2)cc1 | 16.3% (inactive)
31 | CCCCc1ccc(NC(=O)CSCc2cc(=O)[nH][nH]2)cc1 | -4.95% (inactive)
32 | CC(/C=N/NC(=O)Cc1cc(=O)[nH][nH]1)=C\c1ccccc1 | 2.34% (inactive)
33 | O=C(Cc1cc(=O)[nH][nH]1)N/N=C/C=C/c1ccccc1 | -3.45% (inactive)
34 | CC(=O)Nc1cc(OC(=O)c2ccco2)cc(OC(=O)c2ccco2)c1 | 1.93% (inactive)

Test system: M. tuberculosis H37Rv growth inhibition
Assay: as above
Conditions: not given

Row | SMILES | IC90
35 | C(=N\Nc1nncc2ccccc12)/c1ccccn1 | 19.8 µM
36 | Cc1c(/C=N/Nc2nc3ccccc3[nH]2)c2ccccc2n1C | 16.2 µM
37 | CC(=O)N(Cc1ccc(F)cc1)C1=C(NCCc2ccccc2)C(=O)c2ccccc2C1=O | 1.31 µM

Same assay, conditions: measured here: H37Rv growth IC50

Row | SMILES | IC50
38 | O=C(NC(NC(=S)Nc1ccc(Cl)cc1Cl)C(Cl)(Cl)Cl)c1cccc([N+](=O)[O-])c1 (configuration not stated) | 9.33 µM
39 | O=C(Cc1ccccc1)c1c[nH]c(C(=O)C(Cl)(Cl)Cl)c1 | 93.8 µM
40 | CC1=NNC(=O)C1Cc1c(Cl)cccc1Cl (configuration not stated) | 46.2 µM
41 | Clc1ccc(-n2nnnc2Sc2ncnc3sccc23)cc1 | 5.98 µM
42 | C=CCOc1ccccc1CN(C(=O)CCl)c1ccc2c(c1)OCO2 | 1.64 µM
43 | COc1cc2c(cc1OC)C(c1cc(Br)ccc1F)N(C(=O)CCl)CC2 (configuration not stated) | 5.91 µM
44 | Cn1nc(-c2ccccn2)nc2c(=O)n(C)c(=O)nc1-2 | 10.1 µM
45 | CN(C1=C(NC(=O)c2ccc(Cl)cc2)C(=O)c2ccccc2C1=O)c1ccccc1 | 9.43 µM
46 | Cc1ccc2c(c1)c1c3n2CCN(C(=O)CCl)C3CCC1 (configuration not stated) | 1.39 µM
47 | COc1cccc(N(C(=O)CCl)C(C(=O)NCCc2ccccc2)c2cccs2)c1 (configuration not stated) | 19.1 µM
48 | Cn1nc(-c2ccc(Cl)cc2)nc2c(=O)n(C)c(=O)nc1-2 | 6.35 µM
49 | Cc1sc2ncnc(Sc3nnnn3-c3ccccc3)c2c1C | 40.5 µM
50 | Cc1ccc(N(NC(=O)C(O)(c2ccccc2)c2ccccc2)C(=O)CCl)cc1 | 12 µM
51 | Fc1ccc(Oc2nc(-c3ccccc3)nnc2C(F)(F)F)cc1 | > 100 µM
52 | Cc1oc2c(c1C(=O)NCc1cccnc1)C(=O)c1ccccc1C2=O | < 0.2 µM
53 | COc1cc2c(cc1OC)-c1c(OC)c(OC)cc3c1C(C2)N(C)CC3 (configuration not stated) | 25.8 µM
54 | C(=N\Nc1nncc2ccccc12)/c1ccccn1 | 15.9 µM
55 | COC(=O)c1sc(-c2ccc(C(C)(C)C)cc2)cc1NC(=O)/C=C/C(=O)O | 19.1 µM
56 | CC(C)(C)c1csc(Sc2ccc([N+](=O)[O-])cn2)n1 | 51 µM
57 | Cc1nn(-c2ccccc2)c(Cl)c1CN(C(=O)CCl)c1cccc2ccccc12 | 21.7 µM
58 | CC(CCc1ccccc1)NC(=O)COC(=O)c1cc(NS(=O)(=O)c2ccc(Cl)c([N+](=O)[O-])c2)ccc1O (configuration not stated) | > 100 µM
59 | C/C(=N\NC(=O)c1ccncc1)c1cc2ccccc2oc1=O | 0.29 µM
60 | COc1ccc2nc(C)cc(Sc3nc4ccccc4s3)c2c1 | 42.3 µM
61 | Cc1cc(Br)c2c(c1)/C(=C/C(=O)c1cccs1)C(=O)N2 | 11.7 µM

Row | SMILES | IC50
62 | CCn1nc(/C=C/c2ccccc2)nc2c(=O)n(C)c(=O)nc1-2 | 6.39 µM
63 | Cc1cc(C)c(S(=O)(=O)/N=C2\C=C(Nc3ccc(C(=O)O)cc3)C(=O)c3ccccc32)c(C)c1 | > 100 µM
64 | Cc1ccc(C(=O)Oc2ccc([N+](=O)[O-])cc2)cc1S(=O)(=O)N1CCCCCC1 | 46.6 µM
65 | COC(=O)c1sc(-c2ccc(Cl)cc2)cc1NC(=O)/C=C/C(=O)O | 41.8 µM
66 | Cc1nn(-c2ccccc2)c(Cl)c1CN(C(=O)CCl)c1ccc(Cl)cc1 | 1.53 µM
67 | Cc1oc2c(c1C(=O)N1CCOCC1)C(=O)c1ccccc1C2=O | 18 µM
68 | CC(=O)n1cc(N(C(=O)CCl)c2ccc(C)cc2)c2ccccc21 | 1.95 µM
69 | Cc1ccc(C)c(Sc2ccc(NC(=O)CCl)cc2)c1 | 22.5 µM
70 | Cc1nc2c(=O)n(C)c(=O)nc-2n(C)n1 | 1.9 µM
71 | O=C(N/N=C/c1c(O)n(C2CCCCC2)c(=S)[nH]c1=O)c1ccccc1O | > 100 µM
72 | COc1cc(NCCCCCCCN)c2ncccc2c1 | 36.3 µM
73 | O=C(CCl)N(c1ccc(Cl)cc1)c1c[nH]c2ccccc12 | 1.91 µM
74 | Cc1ccc(CS(=O)(=O)c2ncc(Cl)c(C(=O)Nc3nnc(C(C)C)s3)n2)cc1 | 53.5 µM
75 | O=C(CCl)N1c2ccccc2OCC1c1ccccc1 (configuration not stated) | 1.69 µM
76 | Cc1ccc(-n2nnc3c(SCC(=O)NCC4CCCO4)ncnc32)cc1 (configuration not stated) | 46.4 µM
77 | COc1ccc(C(=O)c2c(C(F)(F)F)oc3c2C(=O)c2ccccc2C3=O)cc1OC | 9.48 µM
78 | O=C(NC1CCCCC1)C(c1cccnc1)N(C(=O)CCl)c1cccc(Cl)c1 (configuration not stated) | 15.5 µM
79 | O=C(OCn1ncc(Cl)c(Cl)c1=O)c1ccccc1Cl | 22.1 µM
80 | CC(NC(=O)COC(=O)c1cc(NS(=O)(=O)c2ccc(Cl)c([N+](=O)[O-])c2)ccc1O)C1CC2CCC1C2 (configuration not stated) | 52.1 µM
81 | Cc1ccc(Sc2ccc(NC(=O)CCl)cc2)cc1C | 14.4 µM
82 | Cc1ccc(Sc2ccc(NC(=O)CCl)cc2)c(C)c1 | 17.7 µM
83 | Cc1ccc(N(C(=O)CCl)C(C(=O)NC2CCCCC2)c2cccnc2)cc1C (configuration not stated) | 20.5 µM
84 | CC(=O)n1cc(N(C(=O)CCl)c2ccccc2)c2ccccc21 | 2.14 µM
85 | CSc1nnc(NC(=O)c2nc(S(=O)(=O)Cc3ccccc3F)ncc2Cl)s1 | 41.3 µM

Row | SMILES | IC50
86 | Cc1[nH]n(-c2ccccc2)c(=O)c1C(C[N+](=O)[O-])c1ccc(F)cc1 (configuration not stated) | 19.6 µM
87 | Cc1cccc(Cn2nnc3c2C(=O)c2ccccc2C3=O)c1 | 13.7 µM
88 | CCN(CC)CCNC(=O)c1ccc2c(c1NCCO)C(=O)c1ccccc1C2=O | > 100 µM
89 | O=C(OCn1ncc(Cl)c(Cl)c1=O)c1cccc(C(F)(F)F)c1 | 44.9 µM
90 | COc1ccc(N(C(=O)CCl)C(C(=O)NCCc2ccccc2)c2cccs2)cc1 (configuration not stated) | 7.8 µM
91 | COC(=O)c1c(C)oc2ccc(N(C(=O)c3ccncc3)S(=O)(=O)c3ccc4ccccc4c3)cc12 | 66.9 µM
92 | CC(=O)n1cc(N(C(=O)CCl)c2ccc([N+](=O)[O-])cc2)c2ccccc21 | 3.24 µM
93 | Cc1[nH]n(-c2ccccc2)c(=O)c1C(c1cccc([N+](=O)[O-])c1)c1c(C)[nH]n(-c2ccccc2)c1=O | > 100 µM
94 | CCCCCCCCCCn1c2c(c(=N)c3c1CCC3)CCC2 | 2.16 µM
95 | CN(C1=C(NC(=O)c2ccccc2)C(=O)c2ccccc2C1=O)C1CCS(=O)(=O)C1 (configuration not stated) | 88.6 µM
96 | Cc1c(/C=N/Nc2nc3ccccc3[nH]2)c2ccccc2n1C | 9.5 µM
97 | Cc1ccc(C(=O)OCn2ncc(Cl)c(Cl)c2=O)cc1 | 42.3 µM
98 | Cn1c(O)c(C2=NN(C(=O)CCl)C(c3ccccc3)C2)c(=O)n(C)c1=O (configuration not stated) | 82.7 µM
99 | CSc1nnc(NC(=O)c2nc(S(=O)(=O)Cc3cccc(C)c3)ncc2Cl)s1 | 23.8 µM
100 | CC(C)(C)C1CCc2sc(C(=O)NNC(=O)CCl)cc2C1 (configuration not stated) | 6.29 µM
101 | Cc1ccccc1-n1ncc2c([N+](=O)[O-])cc([N+](=O)[O-])cc21 | 1.01 µM
102 | O=C(CCl)Nc1cn(-c2ccccc2)nc1-c1ccc(F)cc1 | < 0.2 µM
103 | CCC(C)[C@@H](NC(=O)OC(C)(C)C)c1nnc(S(=O)(=O)Cc2cccc(C)c2)o1 (some centres not stated) | 31.9 µM
104 | Cc1cc(C)cc(Cn2ncc(Cl)c(Cl)c2=O)c1 | 11.7 µM
105 | CC(=O)N(Cc1ccc(F)cc1)C1=C(NCCc2ccccc2)C(=O)c2ccccc2C1=O | 0.74 µM
106 | O=C(NC1=C(NC2CCS(=O)(=O)C2)C(=O)c2ccccc2C1=O)c1ccccc1 (configuration not stated) | 50.7 µM
107 | CC(C)c1nnc(NC(=O)c2nc(S(=O)(=O)Cc3ccc(F)cc3)ncc2Cl)s1 | 53.8 µM
